In patent publication US20050090398A1, “Novel tetrazole derivative useful as herbicides” (priority 2002, published 2005):

Legend:
[1] = tested on: transplanted paddy rice; test: Paddy field test: safety to transplanted paddy rice; assay type: in vivo, paddy rice (variety: Nihonbare); details: 0.25 kg/ha active component, applied to water surface 5 days after rice transplantation, examined after 3 weeks
Protocol: (§1) Preparation of formulation of the active compound • Carrier: Acetone 5 parts by weight • Emulsifier: Benzyloxy polyglycol ether 1 part by weight
(§2) A formulation of an active substance is obtained as an emulsifiable concentrate by mixing 1 part by weight of the active compound with the above-mentioned amount of the carrier and emulsifier. A prescribed amount of the formulation is diluted with water.
(§3) In a green house 3 seedlings of paddy rice (variety: Nihonbare) of 2.5 leaf stage (15 cm tall) were transplanted in a 500 cm^2 pot filled with paddy field soil. Then seeds or tubers of Echinochloa crusgalli, Cyperus difformis L., Scirpus juncoides Roxburgh, Monochoria vaginalis Presl, broad-leaved weeds (Lindernia Procumbens Philcox, Rotala indica Koehne, Elatine triandra Schk, Ammannia multiflora Roxb., Dopatrium junceum Hammilt etc.), Cyperus serotinus Rottboel and Sagittaria pygmaea Miq were inoculated and water was poured to a depth of about 2-3 cm. 5 days after the rice transplantation a prescribed, diluted solution of each formulation of active compound prepared according to the aforementioned preparation method was applied to the surface of water. After the treatment the water depth of 3 cm was maintained and the herbicidal effect was examined after 3 weeks from the treatment. The herbicidal effect was rated 100% in the case of complete death and as 0% in the case of no herbicidal effect.

[2] = tested on: paddy field weeds; test: Test for herbicidal effect against paddy field weeds; assay type: in vivo; details: 0.25 kg/ha active component, applied to water surface 5 days after rice transplantation, examined after 3 weeks
Protocol: as §1, §2, §3

[3] = tested on: Amaranthus retroflexus; test: Test of post-emergence foliage treatment against field weeds; assay type: in vivo; details: post-emergence foliage treatment at 2-leaf stage, 2.0 kg/ha effective component, examined 3 weeks after treatment
Protocol: as §1, §2
(§4) In a green house, seeds of Echinochloa crusgalli, Setaria viridis, Amaranthus retro-flexus and Polygonum were sown in a 120 cm^2 pot filled with field soil and covered with soil. 10 days after the sowing and soil covering (weeds were 2-leaf stage in average) a diluted solution of the prescribed chemical amount prepared in the same manner as in the above-mentioned Test Example 1 was spread uniformly on the foliage of the test plants in each test pot. The herbicidal effect was examined 3 weeks after the treatment.

[4] = tested on: Setaria viridis; test: as above; assay type: in vivo; details: post-emergence foliage treatment at 2-leaf stage, 2.0 kg/ha effective component, examined 3 weeks after treatment
Protocol: as §1, §2, §4

[5] = tested on: Polygonum; test: as above; assay type: in vivo; details: post-emergence foliage treatment at 2-leaf stage, 2.0 kg/ha effective component, examined 3 weeks after treatment
Protocol: as §1, §2, §4

[6] = tested on: Echinochloa crusgalli; test: as above; assay type: in vivo; details: post-emergence foliage treatment at 2-leaf stage, 2.0 kg/ha effective component, examined 3 weeks after treatment
Protocol: as §1, §2, §4

SMILES | melting point | safety to the transplanted paddy rice [1] | herbicidal effect against paddy field weeds [2] | also measured
O=C1CCCC(Sc2ccccc2)=C1C(=O)c1ccc(Cl)c(OCCn2cnnn2)c1Cl | 64 to 70 °C | – | – | –
O=C1CCCC(Cl)=C1C(=O)c1ccc(Cl)c(OCCn2cnnn2)c1Cl | 122 to 124 °C | – | – | –
O=C1CCCC(Sc2ccccc2)=C1C(=O)c1ccc(Cl)c(OCCn2cnnn2)c1Cl [compound 219] | – | safety to the transplanted paddy rice | sufficient herbicidal effect | –
Cc1nnnn1Cc1c(S(C)(=O)=O)ccc(C(=O)C2C(=O)CCCC2=O)c1Cl [compound 558] | – | safety to the transplanted paddy rice | sufficient herbicidal effect | –
Cc1nnn(Cc2c(S(C)(=O)=O)ccc(C(=O)C3C(=O)CCCC3=O)c2Cl)n1 [compound 2364] | – | safety to the transplanted paddy rice | sufficient herbicidal effect | herbicidal activity against Amaranthus retroflexus [3]: 90%; herbicidal activity against Setaria viridis [4]: 90%; herbicidal activity against Polygonum [5]: 90%; herbicidal activity against Echinochloa crusgalli [6]: 90%
O=C(c1ccc(Cl)c(OCCn2cnnn2)c1Cl)C1C(=O)C2CCC(C2)C1=O (centres unmarked) [compound 217] | – | safety to the transplanted paddy rice | sufficient herbicidal effect | –
